# Measurements as given in patent US8735387B2, “Oxazolopyrimidines as Edg-1 receptor agonists” (Sanofi, priority 2008, dated 2014).
# Biological target: T1, human Edg-1 receptor (Homo sapiens, UniProt P21453)
# T1 construct: expressed in transfected cells; membrane preparation
# Assay: GTP-γ-S assay using human Edg-1 receptors (scintillation proximity assay, membrane preparation from CHO Flp-In cell line)
# Assay type: biochemical
# Conditions: example compound at 10 μM; relative to 10 μM S1P; GTP-γ-S SPA, human Edg-1 membranes
# Summary of the method: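 Membranes came from Flp-In CHO cells constitutively expressing human Edg-1 carrying an N-terminal FLAG tag. Compound-induced receptor activation was read as GTP-γ-S binding in a scintillation proximity format.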
# T1 sequence (P21453 whole entry): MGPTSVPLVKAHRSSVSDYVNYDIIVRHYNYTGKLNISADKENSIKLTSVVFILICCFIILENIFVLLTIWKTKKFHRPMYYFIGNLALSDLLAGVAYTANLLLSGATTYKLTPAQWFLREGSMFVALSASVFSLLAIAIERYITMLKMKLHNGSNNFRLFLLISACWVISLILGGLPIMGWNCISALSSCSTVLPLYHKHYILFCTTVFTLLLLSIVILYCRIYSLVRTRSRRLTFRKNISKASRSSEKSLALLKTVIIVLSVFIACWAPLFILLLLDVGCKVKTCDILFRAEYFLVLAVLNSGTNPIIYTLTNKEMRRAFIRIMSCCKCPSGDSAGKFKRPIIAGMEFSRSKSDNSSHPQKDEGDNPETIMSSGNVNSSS
row,SMILES,% Activation (Edg-1 receptor activation in percent of the activation by 10 μM S1P) [%]
1,CCOc1nc(Cc2ccc(Cl)cc2)nc2oc(-c3cccnc3)nc12 [Example 128],110
2,CCCOc1nc(Cc2ccc(Cl)cc2)nc2oc(-c3cccc(OC)c3)nc12 [Example 129],108
3,CCCOc1nc(Cc2ccc(Cl)cc2)nc2oc(-c3cccc(Cl)c3)nc12 [Example 130],78
4,CCCOc1nc(Cc2ccc(Cl)cc2)nc2oc(-c3cc(F)ccc3F)nc12 [Example 131],116
5,CCCOc1nc(Cc2ccc(Cl)cc2)nc2oc(-c3ccc(F)c(F)c3)nc12 [Example 132],71
6,CCCOc1nc(Cn2c(=O)n(C)c3ccccc32)nc2oc(-c3cccc(F)c3)nc12 [Example 133],127
7,CCCOc1nc(CN2CCC(=O)C(C(=O)OC)C2)nc2oc(-c3cccc(F)c3)nc12 (centres unmarked) [Example 134],78
8,CCCOc1nc(Cc2ccc(Cl)cc2)nc2oc(-c3cc(N)ccc3F)nc12 [Example 135],117
9,CCCOc1nc(Cc2ccc(C)cc2)nc2oc(-c3cccc(F)c3)nc12 [Example 136],73
10,CCCOc1nc(Cc2ccc(Cl)cc2)nc2oc(-c3cccc(N(C)C)c3)nc12 [Example 137],55
11,CCCOc1nc(Cc2ccc(Cl)cc2)nc2oc(-c3cc(C(F)(F)F)cc(C(F)(F)F)c3)nc12 [Example 138],52
12,Clc1ccc(Cc2nc(OCC3CC3)c3nc(-c4ccc(N5CCOCC5)nc4)oc3n2)cc1 [Example 139],87
13,CCCOc1nc(CN2CCCC2COC)nc2oc(-c3cccc(F)c3)nc12 (centres unmarked) [Example 140],92
14,C=CCOc1nc(Cc2ccc(Cl)c(Cl)c2)nc2oc(-c3cccc(F)c3)nc12 [Example 141],85
15,CCCOc1nc(CN2C(=O)CC(C)(C)CC2=O)nc2oc(-c3cccc(F)c3)nc12 [Example 142],75
16,CCCOc1nc(CN2CCCC2Cc2ccccc2)nc2oc(-c3cccc(F)c3)nc12 (centres unmarked) [Example 143],73
17,CCCOc1nc(CN2CCC(OC)CC2)nc2oc(-c3cccc(F)c3)nc12 [Example 145],67
18,CCCOc1nc(CN2CC(=O)N(Cc3ccccc3)C2=O)nc2oc(-c3cccc(F)c3)nc12 [Example 146],56
19,CCCOc1nc(CN2CCCCC2c2nccs2)nc2oc(-c3cccc(F)c3)nc12 (centres unmarked) [Example 147],55
20,CCCOc1nc(Cc2ccc(Cl)cc2)nc2oc(-c3ccc(N4CCOCC4)nc3)nc12 [Example 148],41

row,SMILES,% Activation (Edg-1 receptor activation in percent of the activation by 10 μM S1P) [%]
1,CCCOc1nc(Cc2ccc(Cl)cc2)nc2oc(-c3cc(C)cc(C)c3)nc12 [Example 149],102
2,CCCOc1nc(Cc2ccc(Cl)cc2)nc2oc(-c3ccncc3F)nc12 [Example 150],143
3,CCCOc1nc(Cc2ccc(Cl)cc2)nc2oc(-c3ccc(OC)nc3)nc12 [Example 151],26
4,CCCOc1nc(Cc2ccc(Cl)cc2)nc2oc(-c3ccc(O)c(F)c3)nc12 [Example 152],100
5,CCCOc1nc(Cc2ccc(Cl)cc2)nc2oc(-c3cncc(C)c3)nc12 [Example 153],84
6,CCCOc1nc(Cn2cnc(C)n2)nc2oc(-c3cccc(F)c3)nc12 [Example 154],88
7,CCCOc1nc(Cn2ncnc2C)nc2oc(-c3cccc(F)c3)nc12 [Example 155],87
8,CCCOc1nc(CC2CCOCC2)nc2oc(-c3cccc(C)c3)nc12 [Example 159],73
9,CCCOc1nc(CC2CCOCC2)nc2oc(-c3cccc(F)c3)nc12 [Example 160],69
10,Fc1cccc(-c2nc3c(OCC4CC4)nc(CC4CCOCC4)nc3o2)c1 [Example 161],96
11,CCCOc1nc(CC2CCC2)nc2oc(-c3cccc(C)c3)nc12 [Example 162],108
12,CCOc1nc(CC2CCC2)nc2oc(-c3cccc(C)c3)nc12 [Example 163],118
13,CCOc1nc(CC2CCC2)nc2oc(-c3cc(F)ccc3Cl)nc12 [Example 164],98
14,Cc1cccc(-c2nc3c(OCC4CC4)nc(CC4CCC4)nc3o2)c1 [Example 165],97
15,CCCOc1nc(Cc2cc(OC)cc(OC)c2)nc2oc(-c3cccc(C)c3)nc12 [Example 166],42
16,CCCOc1nc(Cc2ccc(Cl)cc2)nc2oc(-c3cc(C)ccc3F)nc12 [Example 167],102
17,CCCOc1nc(Cc2ccc(Cl)cc2)nc2oc(-c3ccc(Cl)c(C)c3)nc12 [Example 169],87
18,CCCOc1nc(Cc2ccc(Cl)cc2)nc2oc(-c3cccc(C)c3C)nc12 [Example 170],89
19,CCCOc1nc(Cc2ccc(Cl)cc2)nc2oc(-c3cccc(C)c3F)nc12 [Example 171],115
20,CCCOc1nc(Cc2ccc(Cl)cc2)nc2oc(-c3ccc(F)c(C)c3)nc12 [Example 172],78

row,SMILES,% Activation (Edg-1 receptor activation in percent of the activation by 10 μM S1P) [%]
1,CCCOc1nc(Cc2ccc(Cl)cc2)nc2oc(-c3cnc(N4CCN(C)CC4)nc3)nc12 [Example 173],77
2,CCCOc1nc(Cc2ccc(Cl)cc2)nc2oc(-c3cncnc3)nc12 [Example 174],75
3,CCCOc1nc(Cc2ccc(Cl)cc2)nc2oc(-c3ccc(C(C)=O)s3)nc12 [Example 175],116
4,CCCOc1nc(Cc2ccc(Cl)cc2)nc2oc(-c3ccc(OC)c(C)c3)nc12 [Example 176],94
5,CCCOc1nc(Cc2ccc(Cl)cc2)nc2oc(-c3cc(OC)ncc3Cl)nc12 [Example 177],106
6,CCCOc1nc(Cc2ccc(Cl)cc2)nc2oc(-c3ccc(N(C)C)c(C)c3)nc12 [Example 178],91
7,CCCOc1nc(CN2CCCC(O)C2)nc2oc(-c3cccc(F)c3)nc12 (centres unmarked) [Example 179],87
8,CCCOc1nc(CN2C(C(=O)O)CCS2(=O)=O)nc2oc(-c3cccc(F)c3)nc12 (centres unmarked) [Example 180],41
9,CCCOc1nc(CN2CCC(O)C2)nc2oc(-c3cccc(F)c3)nc12 (centres unmarked) [Example 181],58
10,CCCOc1nc(CN2CCCCC2)nc2oc(-c3cccc(F)c3)nc12 [Example 182],108
11,CCCOc1nc(CN2CCCC2)nc2oc(-c3cccc(F)c3)nc12 [Example 183],85
12,CCCOc1nc(CN2CCOC[C@@H]2C)nc2oc(-c3cccc(F)c3)nc12 [Example 184],88
13,CCCOc1nc(CN2CCOC[C@@H]2CO)nc2oc(-c3cccc(F)c3)nc12 [Example 185],97
14,Cc1cccc(-c2nc3c(OC(C)C)nc(CN4CCOCC4)nc3o2)c1 [Example 186],123
15,Cc1cccc(-c2nc3c(OC4COC4)nc(CN4CCOCC4)nc3o2)c1 [Example 187],116
16,CCCOc1nc(Cc2ccccc2)nc2oc(-c3cc(C)c(OC)c(C)c3)nc12 [Example 188],112
17,COc1cccc(-c2nc3c(OCC(C)C)nc(Cc4ccccc4)nc3o2)c1 [Example 189],114
18,CCOc1nc(Cc2ccc(Cl)cc2)nc2oc(-c3cc(C)c(OC)c(C)c3)nc12 [Example 190],66

# Same assay, conditions: example compound at 10 μM; relative to 10 μM S1P; GTP-γ-S SPA, human Edg-1 membranes; read-out: % Activation (Edg-1 receptor activation in percent of the activation by 10 μM S1P)
row,SMILES,activation at 10 µM [%]
1,"CCCOc1nc(Cc2ccc(Cl)cc2)nc2oc(-c3cc(C)c(OC)c(C)c3)nc12 [Example 168, 5-(4-chloro-benzyl)-2-(4-methoxy-3,5-dimethyl-phenyl)-7-propoxy-oxazolo[5,4-d]pyrimidine]",117
